Measured values published in patent US8859496B2, “Pharmaceutical composition using connective-tissue growth factor” (Postech Academy-Industry Foundation, priority 2010, dated 2014).

Experiments:
human FPRL1 = assay: siRNA inhibition of FPRL1 expression in HUVECs (RT-PCR); format: cell-based; settings: siRNA 20 nM
Experimental: To inhibit transcription of human FPRL1 using siRNA, siRA to FPRL1 (sense: UUCACAUCGUGGUGGACAUdTdT (SEQ ID NO. 3), anti-sense: AUGUCCACCACGAUGUGAAdTdT (SEQ ID NO. 4)) was used. As result of BLAST search of the siRNA sequence, it was confirmed that there is no significant similarity to other sequences in the database. […] HUVECs were used for siRNA transfection. The cells were transfected to the final concentration of 20 nM with FPRL1 siRNA (SEQ ID NO. 3 and SEQ ID NO. 4) or transfected with luciferase siRNA (SEQ ID NO. 11 and SEQ ID NO. 12) as control. At this time, a lipofectamine reagent (Invitrogen Life Technologies) was used according to the manufacturer's instruction. The cells were washed with serum-free medium, and cultured with the transfection mixture to which medium containing 20% (v/v) FBS was added for 4.5 hours. 24 hours and 48 hours after culturing, the cells were collected, and the degree of FPRL1 expression was confirmed by RT-PCR analysis.
All RNAs were separated from the transfected HUVECs according to the manufacturer's instruction using commercially available TRI reagent (Molecular Research Center). First-strand cDNA was synthesized according to the manufacturer's instruction using 3 ug of each DNA-free total RNA sample and oligo(dT)15 and Moloney murine leukemia virus reverse transcriptase (Promega, Wis., USA). […]

HUVECs [1] = assay: HUVEC wound migration assay; format: cell-based, human; settings: compared to Luciferase siRNA control
Experimental: Specifically, HUVECs inoculated on a 60-mm culture dish to confluence were wounded with the end of a pipette, and treated with linker polypeptide (10^−1˜10^2 nM) or recombinant CTGF (recombinant human CTGF, rhCTGF; BioVendor R&D, NC, USA) (10^1 or 10^2 nM) in Medium 199 to which 1% serum and 1 mM thymidine were added. After culturing 16 hours, the number of cells that migrated over a reference line was counted to quantify the degree of migration, and the cells were photographed with 50× magnification.
(§1) First, 20 ng/ml of VEGF-A was administered to HUVECs, the degree of cell proliferation, cell migration, or tube formation was confirmed by the <Experiment method 9>, and the results are shown in FIGS. 22 to 24. At this time, FPRL1 antagonist WRW4 was additionally added.

HUVECs [2] = assay: HUVEC tube formation on Matrigel; format: cell-based, human; settings: compared to Luciferase siRNA control
Experimental: Meanwhile, to analyze tube formation, HUVECs were inoculated on the previously polymerized Matrigel (BD Biosciences) layer together with a certain amount of linker polypeptide, rhCTGF or VEGF-A165. After culturing for 18 hours, the shape of the cells was observed by phase-contrast microscopy, and photographed with 40× magnification. By measuring the length of tubes 5 times in LPF (low-power fields) randomly selected from each well using image-Pro Plus v4.5 (Media Cybernetics, Silver Spring, Md.), the degree of tube formation was quantified.
as §1

FPRL1 = target: T1, FPRL1 (Homo sapiens, UniProt P25090); assay: ERK phosphorylation in FPRL1/RBL cells (immunoblot); format: cell-based; settings: vector/RBL, FPR/RBL or FPRL1/RBL cells; conditioned medium or VEGF-A 10 ng/ml 8 hours; WKYMVm 10 nM
T1 construct: expressed in transfected cells; host or cells: rat basophil leukemia RBL-2H3 cells, kept under G418
T1 sequence (P25090 1-351): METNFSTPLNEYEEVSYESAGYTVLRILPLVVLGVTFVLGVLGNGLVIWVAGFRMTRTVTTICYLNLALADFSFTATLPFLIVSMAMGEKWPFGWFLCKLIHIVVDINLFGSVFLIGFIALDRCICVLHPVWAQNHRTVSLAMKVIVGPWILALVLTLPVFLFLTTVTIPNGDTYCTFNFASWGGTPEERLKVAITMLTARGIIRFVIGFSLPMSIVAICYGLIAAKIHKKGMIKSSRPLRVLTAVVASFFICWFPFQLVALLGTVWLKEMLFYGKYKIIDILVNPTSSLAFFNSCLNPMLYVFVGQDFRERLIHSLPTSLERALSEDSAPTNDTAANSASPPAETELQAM
Experimental: Vector/RBL cells, FPR/RBL cells, FPRL1/RBL cells, and HUVECs were cultured to confluence, and serum-starved. The stimulated cells (1×10^5 cells) were washed with PBS twice, dissolved in 1 ml of sample buffer (50 mM Tris-HCl, 100 mM NaCl, 0.1% SDS, 1% Nonidet P-40, 50 mM NaF, 1 mM Na3VO4, 1 μg/ml aprotinin, 1 μg/ml pepstatin, and 1 μg/ml leupeptin), heated at 95° C. for 30 seconds, separated with SDS-PAGE, and then, transferred to a nitrocellulose film. Immunoblot was conducted using anti-phospho-ERK (extracellular signal regulated kinase)1/2 (Thr^202/Tyr^204)(Cell Signaling Technology, Beverly, Mass., USA), anti-ERK1/2 (Cell Signaling Technology, Beverly, Mass., USA), anti-CTGF (Abcam, Cambridge, Mass., USA), anti-Actin (Sigma, St. Louis, Mo., USA), or anti-Flag (Sigma, St. Louis, Mo., USA) antibody, and then, the film was visualized with a chemiluminescence substrate (Amersham Pharmacia).
To confirm this, the inventors obtained conditioned medium (CM) in HUVEC treated with VEGF-A, and FPRL1-overexpressing cells FPRL1/RBL were treated therewith in the concentration of 10 ng/ml or 50 ng/ml for 8 hours. At this time, as positive control, FPRL1 agonistic peptide WKYMVm (Trp-Lys-Tyr-Met-Val-D-Met, SEQ ID NO. 1) was treated with 10 nM.
After the treatment, immunoblot was conducted on cell lysate that was transferred to a nitrocellulose film with anti-phospho ERK (extracellular signal regulated kinase)1/2 and anti-ERK1/2 antibody (Cell Signaling Technology, Beverly, Mass., USA), and then, the film was visualized with a chemiluminescence substrate (Amersham Pharmacia), and the results are shown in FIG. 1.
Meanwhile, the above described vector/RBL, FPR/RBL, or FPRL1/RBL cells were respectively treated with the above conditioned medium or VEGF-A at the concentration of 10 ng/ml for 8 hours, and positive control was treated with 10 nM of agonistic peptide WKYMVm (SEQ ID NO. 1).
As described in the <Experiment method 5>, FPRL1/RBL cells were treated with 40 ug of the HPLC fraction of the conditioned medium for 5 minutes, and the result confirming whether ERK phosphorylation occurred as described in the <Experiment result 1> was shown in FIG. 3.
To confirm whether the purified proteins induce ERK phosphorylation in FPRL1/RBL cells, immunoblot was conducted as described in the <Experiment result 1>, and the results are shown in FIG. 9.
ERK phosphorylation induction of CTGF linker polypeptide was compared to recombinant human CTGF (rhCTGF). Specifically, FPRL1/RBL cells were treated with CTGF linker polypeptide and rhCTGF for 5 minutes at various concentrations, ERK phosphorylation was measured, and the results are shown in FIG. 11. […]

Substance | FPRL1 expression after siRNA (human FPRL1) | effect of siRNA on HUVEC cell migration induced by VEGF-A (HUVECs [1]) | effect of siRNA on HUVEC tube formation induced by VEGF-A (HUVECs [2]) | ERK phosphorylation, specificity for FPRL1 (FPRL1)
Luciferase siRNA: control siRNA, sense: CGUACGCGGAAUACUUCGAdTdT (SEQ ID NO. 11), anti-sense: UCGAAGUAUUCCGCGUACGdTdT (SEQ ID NO. 12) (dTdT overhangs, chemistry not fully specified) | FPRL1 expression is not inhibited | – | – | –
FPRL1 siRNA: sense: UUCACAUCGUGGUGGACAUdTdT (SEQ ID NO. 3), anti-sense: AUGUCCACCACGAUGUGAAdTdT (SEQ ID NO. 4) (dTdT overhangs, chemistry not fully specified) | FPRL1 expression is inhibited | cell migration or tube formation induced by VEGF-A is inhibited | cell migration or tube formation induced by VEGF-A is inhibited | –
Trp-Lys-Tyr-Met-Val-D-Met [WKYMVm] | – | – | – | induce ERK phosphorylation only in FPRL1-overexpressing FPRL1/RBL cells
